“Also recorded” adds a separate entry of the source. Read-outs that look alike come from different tables or passages of the source.
What was measured:
[1] = Stability in acidic medium (hydrolysis of cycle A in pH buffers, HPLC); format: physicochemical; conditions: for Hydrolysis rate (%) pH=1: pH=1 buffer; for Hydrolysis rate (%) pH=1 / Hydrolysis rate (%) pH=2 / Hydrolysis rate (%) pH=3 / Hydrolysis rate (%) pH=7 (reference): 30 µM in 5 ml, stirred 15 minutes at 37°C; for Hydrolysis rate (%) pH=2: pH=2 buffer; for Hydrolysis rate (%) pH=3: pH=3 buffer; for Hydrolysis rate (%) pH=7 (reference): pH=7 (reference) buffer
Experimental: In order to study the influence of R8 group on the stability of cycle A when comparing compounds EXAMPLE A and EXAMPLE B (R8 = hydrogen atom) to compounds of Example 1, Example 4, Example 7, Example 8 and Example 11, 30 µM of each of these compounds were dissolved into 5 ml of pH=1 or pH=2 or pH=3 or pH=7 (reference) buffer. Solutions were stirred for 15 minutes at 37°C. Subsequent measurements of compounds amounts non hydrolyzed were measured using a high performance liquid chromatography method. [drawing 18] Table I :
Compounds n°1, 4, 7, 8 and 11 are quite stable from pH=2, since less than 27 per cent of these compounds are hydrolysed at pH≥2.

[2] = Absolute oral bioavailability (oral/IV) in Beagle dogs; format: in vivo
[3] = tested on: Beagle dogs; assay: Hypnotic activity: effects on wakefulness / sleep states in Beagle dogs (EEG/EMG/EOG polygraph); format: in vivo; conditions: for Mean (± S.D.) duration of stages in 8 dogs (minutes) Drowsy / Mean (± S.D.) duration of stages in 8 dogs (minutes) REM / Mean (± S.D.) duration of stages in 8 dogs (minutes) SWS / Mean (± S.D.) duration of stages in 8 dogs (minutes) Sleep / Mean (± S.D.) duration of stages in 8 dogs (minutes) Wake / Mean (± S.D.) latencies after administration (minutes) Drowsy / Mean (± S.D.) latencies after administration (minutes) REM / Mean (± S.D.) latencies after administration (minutes) SWS: 120 minutes observation; for hypnotic effect in Beagle dogs (in words): oral
Experimental: Beagle dogs are kept in a metal cage, connected to 2 Schwartzer ED 24 Polygraph equipped with BRAINLAB® software, through a flexible cable. Test and control products are administered via the oral or intravenous routes by means of gastric tubes. Records are scored in 30 seconds epochs for active wake, drowsy, slow wave sleep (light sleep + deep sleep) and REM sleep. These criteria are according to SHELTON et al.( in SHELTON J., NISHINO S., VAUGHT J., DEMENT W.C. and MIGNOT E. Comparative effects of modafinil and amphetamine on daytime sleepiness and cataplexy of narcoleptic dogs. Sleep 19(1); 29-38, 1996.), based upon frequency and amplitude patterns of EEG cortical tracing (fronto-frontal), EMG (upper neck muscles) and EOG (bilateral). Behaviour is also continuously monitored for each observation period of 120 minutes. Prior acclimatisation of the dogs take 5 days; and, to mimic similar stress caused by gastric tubing, a mixture water/PEG (50/50; V/V) was administered orally together with intravenous boluses. • Wake : includes all episodes with low voltage mixed frequency tracing in which the EMG is not inhibited. […] Synchronous waves at 4 - 7 Hz and 50 - 100 µV appear on a background of low voltage fast-wave activity. […] EEG patterns are of higher amplitude than in the previous stage and sleep spindles ( 10 - 14 Hz) and / or K complexes must be present in light sleep, as EOG show slow eye movements or no movement. Deep sleep is scored when slow delta waves (< 4 Hz) constitute 20 p. cent of an epoch or more during deep sleep. • REM : rapid eye movement sleep is scored when dogs lay down, eyes closed with intermittent apparent fast muscle twitches. A low voltage mixed frequency EEG tracing is observed together with rapid eye movements and a drop in EMG activity.
Repartition and duration of wakefulness / sleep states in Beagle dogs have been measured after oral (and intravenous route for compoundof EXAMPLE 1) administrations of Placebo (vehicle = 10 ml of mixture ethanol / PEG 400 / water; 10 / 40 /50; V/V/V) compounds of Example 1, Example 4 and Example 7.
Results are presented in Tables II and III as Durations and Latencies of each stage.

[4] = dog, in vivo, Beagle dogs, fasting conditions, oral relative to intravenous route, read-out: Absolute bioavailability oral/IV in Beagle dogs (fasting conditions) 1 < gastric pH < 2

| SMILES | Hydrolysis rate (%) pH=1 [1] [%] | Hydrolysis rate (%) pH=2 [1] [%] | Hydrolysis rate (%) pH=3 [1] [%] | Hydrolysis rate (%) pH=7 (reference) [1] [%] | per cent of compounds hydrolysed at pH≥2 [1] | bioavailability ([2]; beagle, dog, in vivo) [%] | hypnotic effect in Beagle dogs (in words) [3] | further results |
| --- | --- | --- | --- | --- | --- | --- | --- | --- |
| COc1ccc2[nH]c3c(c2c1)CCN1C(=O)CCCC31 (stereo not shown) [EXAMPLE B, reference compound] | 95 | 95 | 90 | 0 |  |  |  | hydrolysis between pH=1 and pH=3 (in words) [1]: totally hydrolyzed; Absolute bioavailability oral/IV in Beagle dogs (fasting conditions) 1 < gastric pH < 2 ([2]; Beagle dogs, fasting conditions, oral relative to intravenous route): <5%; bioavailability [2, 4]: < 5% |
| COc1ccc2[nH]c3c(c2c1)CCN1C(=S)CCC(c2ccccc2)=C31 [Example 11, 9-methoxy-1-phenyl-2,3,4,6,7,12-hexahydroindolo [2,3-a] [beta]quinolizin 4-thione] | 26.0 | 27.0 | 30.0 | 0 | less than 27 per cent |  |  |  |
| COc1ccc2[nH]c3c(c2c1)CCN1C(=O)CCC(c2ccccc2)=C31 [Example 4, 9-methoxy-1-phenyl-2,3,4,6,7,12-hexahydroindolo[2,3-a] quinolizin-4-one] | 0 | 0 | 0 | 0 | less than 27 per cent | > 20 | significant hypnotic effect; also recorded: potent hypnotic activity | Absolute bioavailability oral/IV in Beagle dogs (fasting conditions) 1 < gastric pH < 2 ([2]; beagle, dog, in vivo): >20%; Mean (± S.D.) duration of stages in 8 dogs (minutes) Drowsy ([3]; 10 µmol/Kg oral, Table III): 10.4 (3.9) minutes; Mean (± S.D.) duration of stages in 8 dogs (minutes) REM ([3]; 10 µmol/Kg oral, Table III): 4.4 (4.5) minutes; Mean (± S.D.) duration of stages in 8 dogs (minutes) SWS ([3]; 10 µmol/Kg oral, Table III): 31.5 (17.6) minutes; Mean (± S.D.) duration of stages in 8 dogs (minutes) Sleep ([3]; 10 µmol/Kg oral, Table III): 46.3 (21.3) minutes; Mean (± S.D.) duration of stages in 8 dogs (minutes) Wake ([3]; 10 µmol/Kg oral, Table III): 73.8 (21.3) minutes; Mean (± S.D.) latencies after administration (minutes) Drowsy ([3]; 10 µmol/Kg oral, Table III): 50.4 (19.8) minutes; Mean (± S.D.) latencies after administration (minutes) REM ([3]; 10 µmol/Kg oral, Table III): 93.1 (26.3) minutes; Mean (± S.D.) latencies after administration (minutes) SWS ([3]; 10 µmol/Kg oral, Table III): 58.1 (27.0) minutes |
| CCC1=C2c3[nH]c4ccc(OC)cc4c3CCN2C(=S)CC1 [Example 7, 9-methoxy-1-ethyl-2,3,4,6,7,12-hexahydroindolo[2,3-a] quinolizine-4-thione] | 17.0 | 13.0 | 5.4 | 0 | less than 27 per cent |  | significant hypnotic effect; also recorded: potent hypnotic activity | Mean (± S.D.) duration of stages in 8 dogs (minutes) Drowsy ([3]; 5.0 µmol/Kg oral, Table III): 13.0 (8.6) minutes; Mean (± S.D.) duration of stages in 8 dogs (minutes) REM ([3]; 5.0 µmol/Kg oral, Table III): 4.4 (6.1) minutes; Mean (± S.D.) duration of stages in 8 dogs (minutes) SWS ([3]; 5.0 µmol/Kg oral, Table III): 18.9 (14.7) minutes; Mean (± S.D.) duration of stages in 8 dogs (minutes) Sleep ([3]; 5.0 µmol/Kg oral, Table III): 35.1 (25.8) minutes; Mean (± S.D.) duration of stages in 8 dogs (minutes) Wake ([3]; 5.0 µmol/Kg oral, Table III): 83.7 (25.1) minutes; Mean (± S.D.) latencies after administration (minutes) Drowsy ([3]; 5.0 µmol/Kg oral, Table III): 59.0 (20.0) minutes; Mean (± S.D.) latencies after administration (minutes) REM ([3]; 5.0 µmol/Kg oral, Table III): 91.1 (28.1) minutes; Mean (± S.D.) latencies after administration (minutes) SWS ([3]; 5.0 µmol/Kg oral, Table III): 74.1 (26.3) minutes |
| CCC1CCC(=O)N2CCc3c([nH]c4ccc(OC)cc34)C12 (stereo not shown) [Example 8, 9-methoxy-1-ethyl-1,2,3,4,6,7,12,12b-octahydroindolo [2,3-a] quinolizin-4-one] | 0 | 0 | 0 | 0 | less than 27 per cent | 100 |  |  |
| COc1ccc2[nH]c3c(c2c1)CCN1C(=O)CCC=C31 [EXAMPLE A, reference compound] | 100 | 100 | 100 | 0 |  |  |  | hydrolysis between pH=1 and pH=3 (in words) [1]: totally hydrolyzed; bioavailability [2, 4]: < 1% |
| CCC1=C2c3[nH]c4ccc(OC)cc4c3CCN2C(=O)CC1 [Example 1, 9-methoxy-1-ethyl-2,3,4,6,7,12-hexahydroindolo [2,3-a] quinolizin-4-one] | 79.5 | 14.5 | 8.7 | 0 | less than 27 per cent | > 35 | significant hypnotic effect; also recorded: potent hypnotic activity | Absolute bioavailability oral/IV in Beagle dogs (fasting conditions) 1 < gastric pH < 2 ([2]; beagle, dog, in vivo): >35%; Mean (± S.D.) duration of stages in 8 dogs (minutes) REM ([3]; 2.5 µmol/Kg IV): 3.8 (3.9) minutes; Mean (± S.D.) latencies after administration (minutes) REM ([3]; 2.5 µmol/Kg IV): 79.9 (25.4) minutes; Mean (± S.D.) duration of stages in 8 dogs (minutes) REM ([3]; 2.5 µmol/Kg oral): 3.3 (3.4) minutes; Mean (± S.D.) latencies after administration (minutes) REM ([3]; 2.5 µmol/Kg oral): 82.9 (32.8) minutes; Mean (± S.D.) duration of stages in 8 dogs (minutes) REM ([3]; 5 µmol/Kg oral, Table II): 3.1 (3.7) minutes; Mean (± S.D.) latencies after administration (minutes) REM ([3]; 5 µmol/Kg oral, Table II): 79.3 (33.3) minutes; Mean (± S.D.) duration of stages in 8 dogs (minutes) REM ([3]; 10 µmol/Kg oral, Table II): 2.4 (3.5) minutes; Mean (± S.D.) latencies after administration (minutes) REM ([3]; 10 µmol/Kg oral, Table II): 101.9 (27.3) minutes |

Reference: patent EP1064284B1, “HYPNOTIC BETA-CARBOLINE DERIVATIVES, PROCESS FOR THEIR PREPARATION AND THEIR USE AS MEDICINAL PRODUCTS” (priority 1998, dated 1999)
